Laboratory results taken from article PMC10864483, “Iron uptake pathway of Escherichia coli as an entry route for peptide nucleic acids conjugated with a siderophore mimic” (Frontiers in Microbiology, 2024).
Where a SMILES comes first, the peptide text is derived from it. [ ]: non-standard residue; d: D form. Orn(N5-OH,N5-Ac) = CC(=O)N(O)CCC[C@H](N)C(=O)O

Assay: CD spectroscopy of siderophore-iron(III) complexes
Assay type: physicochemical
Details: for Optimal Fe^3+ complex configuration: CD, phosphate buffer pH 7.0, optical isomer Λ or Δ
Description: To elucidate the configuration of the siderophore-iron(III) complexes, we used circular dichroism (CD) spectroscopy where the minimum and maximum with Cotton effect are expected in the range of 350–490 nm ([Winkelmann, 1991]; [Matsumoto et al., 2001]). For the Λ configuration, the minimum band in the CD spectrum should be present before the maximum. Since the Δ configuration is a mirror image of the Λ configuration, the maximum band appears first ([Winkelmann, 1991]). In the presence of the Fe^3+ salt, the natural siderophores and SL solution changed from colorless to yellow after several minutes. This indicates the presence of the siderophore-ferric iron complex and further confirms the metal-binding properties of these compounds ([Winkelmann, 1991]). Based on this observation, during the CD experiments, for every siderophore, we adjusted the incubation time at the optimal concentration, ranging from 40 to 90 min (see Supplementary Figure S1).
Figure 4 CD spectra of the natural (ferrichrome and feroxamine) and synthetic (SL and SC) siderophores with Fe^3+ salt solution in phosphate buffer (pH = 7.0).
CD spectra were recorded in aqueous buffer solution (100 mM phosphate buffer, pH 7.0), in the presence of 4 mM iron(III) salt solution (FeCl3 in the phosphate buffer). To obtain optimal recording conditions, siderophore concentrations were varied in the range 0.24–1.0 mM with an incubation time of 20–90 min (Supplementary Figure S1). In all CD experiments, the siderophore-Fe^3+ molar ratio of 1:1 was maintained. The spectra were collected using the Biokine MOS-450/AF-CD spectrometer equipped with the Xe lamp using a 0.1 cm CD cell. The acquisition duration time was 2 s with a resolution of 1 nm. The measurements were performed in 100 mM phosphate buffer, pH 7.0, room temperature, and wavelength range 300–500 nm. The presented CD spectra were smoothed with the Savitzky–Golay method using GraphPad and are the averages of three scans. Each CD experiment was conducted twice to confirm the repeatability of the spectra.

[1] = siderophore with Fe^3+ salt 1:1, 100 mM phosphate buffer pH 7.0, room temperature, 300-500 nm, average of three scans

cyc(Asp-(Orn(Ac,OH))3-Gly-Lys(N3)) (head to tail) [SC, azido-Cyc(Asp-(Orn(Ac‚OH))3-GIy-Lys(N3)), cyclic hydroxamate siderophore mimic]
CD Wavelength Maximum [1]: 487 nm | Ferric iron binding (CD and color change) (with Fe^3+ salt solution, phosphate buffer pH 7.0): cannot bind ferric iron

CC(=O)N([O-])CCC[C@@H]1NC(=O)CNC(=O)CNC(=O)CNC(=O)[C@H](CCCN([O-])C(C)=O)NC(=O)[C@H](CCCN([O-])C(C)=O)NC1=O.[Fe+3] [Ferrichrome] (cyclo(GGG[Orn(N5-OH,N5-Ac)][Orn(N5-OH,N5-Ac)][Orn(N5-OH,N5-Ac)]))
Optimal Fe^3+ complex configuration: Λ | CD Wavelength Maximum [1]: 456 nm | CD Wavelength Minimum [1]: 360 nm

CC(=O)N([O-])CCCCCNC(=O)CCC(=O)N([O-])CCCCCNC(=O)CCC(=O)N([O-])CCCCCN.[Fe+3] [Feroxamine, feroxamine]
Optimal Fe^3+ complex configuration: Λ and Δ
